Experimental data reported in PubChem BioAssay AID1963840 (Molecular Pharmacology Branch, DTP, NCI, 2024).

Test system: 695427-040-R-J1-PDC complex spheroid viability
Assay: Anticancer human tumor 695427-040-R-J1-PDC patient-derived colon adenocarcinoma cell line growth inhibition [POLQ]
Conditions: for IC50: curve of first compound; for viability, T/C: stronger effect = lower value
Summary of the method: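 Three-cell-type spheroids modelling solid tumor plus stroma served as the readout system; POL inhibitors were tested individually and in combination, concentration ranges set by clinical Cmax where known.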

[1] = second compound 0.0316 µM, first compound 0.0316 µM
[2] = second compound 0.0316 µM, first compound 0.1 µM
[3] = second compound 0.0316 µM, first compound 0.316 µM
[4] = second compound 0.0316 µM, first compound 1 µM
[5] = second compound 0.1 µM, first compound 0.0316 µM
[6] = second compound 0.1 µM, first compound 0.1 µM
[7] = second compound 0.1 µM, first compound 0.316 µM
[8] = second compound 0.1 µM, first compound 1 µM
[9] = second compound 0.316 µM, first compound 0.0316 µM
[10] = second compound 0.316 µM, first compound 0.1 µM
[11] = second compound 0.316 µM, first compound 0.316 µM
[12] = second compound 0.316 µM, first compound 1 µM
[13] = second compound 1 µM, first compound 0.0316 µM
[14] = second compound 1 µM, first compound 0.1 µM
[15] = second compound 1 µM, first compound 0.316 µM
[16] = second compound 1 µM, first compound 1 µM
[17] = second compound 3.16 µM, first compound 0.0316 µM
[18] = second compound 3.16 µM, first compound 0.1 µM
[19] = second compound 3.16 µM, first compound 0.316 µM
[20] = second compound 3.16 µM, first compound 1 µM
[21] = second compound 10 µM, first compound 0.0316 µM
[22] = second compound 10 µM, first compound 0.1 µM
[23] = second compound 10 µM, first compound 0.316 µM
[24] = second compound 10 µM, first compound 1 µM
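Note: spheroids exposed to compounds for seven days.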
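Throughout, for viability, T/C: 100% = DMSO vehicle control viability.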

Question: `CCc1c2c(nc3ccc(O)cc13)-c1cc3c(c(=O)n1C2)COC(=O)[C@]3(O)CC` + COC1C(OC(N)=O)C(O)C(Oc2ccc3c(O)c(NC(=O)c4ccc(O)c(CC=C(C)C)c4)c(=O)oc3c2C)OC1(C)C was tested. Which IC50 (second compound 0.0316 µM) did it give?
Answer: 976 nM

Question: What about the IC50 (second compound 0.1 µM) of the same compound?
Answer: 893 nM

Question: What about the IC50 (second compound 0.316 µM) of the same compound?
Answer: > 1000 nM

Question: What about the IC50 (second compound 1 µM) of the same compound?
Answer: 985 nM

Question: What about the IC50 (second compound 3.16 µM) of the same compound?
Answer: 809 nM

Question: And the IC50 (second compound 10 µM)?
Answer: 656 nM

Question: What about the viability, T/C (second compound 0.0316 µM, first compound 0.00316 µM) of the same compound?
Answer: 97.5%

Question: And the viability, T/C (second compound 0.0316 µM, first compound 0.01 µM)?
Answer: 89%

Question: And the viability, T/C [1]?
Answer: 82.6%

Question: And the viability, T/C [2]?
Answer: 78.9%

Question: What about the viability, T/C [3] of the same compound?
Answer: 68.2%

Question: What about the viability, T/C [4] of the same compound?
Answer: 48.1%

Question: And the viability, T/C (second compound 0.1 µM, first compound 0.00316 µM)?
Answer: 102%

Question: What about the viability, T/C (second compound 0.1 µM, first compound 0.01 µM) of the same compound?
Answer: 91.4%

Question: What about the viability, T/C [5] of the same compound?
Answer: 86.9%

Question: And the viability, T/C [6]?
Answer: 78.4%

Question: And the viability, T/C [7]?
Answer: 68.4%

Question: And the viability, T/C [8]?
Answer: 46.9%

Question: What about the viability, T/C (second compound 0.316 µM, first compound 0.00316 µM) of the same compound?
Answer: 107%

Question: What about the viability, T/C (second compound 0.316 µM, first compound 0.01 µM) of the same compound?
Answer: 94.4%

Question: And the viability, T/C [9]?
Answer: 78.8%

Question: What about the viability, T/C [10] of the same compound?
Answer: 78.3%

Question: What about the viability, T/C [11] of the same compound?
Answer: 68.8%

Question: And the viability, T/C [12]?
Answer: 50.5%

Question: And the viability, T/C (second compound 1 µM, first compound 0.00316 µM)?
Answer: 97.3%

Question: And the viability, T/C (second compound 1 µM, first compound 0.01 µM)?
Answer: 97.5%

Question: And the viability, T/C [13]?
Answer: 81.7%

Question: And the viability, T/C [14]?
Answer: 78.9%

Question: What about the viability, T/C [15] of the same compound?
Answer: 69.1%

Question: What about the viability, T/C [16] of the same compound?
Answer: 48.4%

Question: What about the viability, T/C (second compound 3.16 µM, first compound 0.00316 µM) of the same compound?
Answer: 97%

Question: What about the viability, T/C (second compound 3.16 µM, first compound 0.01 µM) of the same compound?
Answer: 90.9%

Question: What about the viability, T/C [17] of the same compound?
Answer: 87.7%

Question: And the viability, T/C [18]?
Answer: 75.8%

Question: What about the viability, T/C [19] of the same compound?
Answer: 63.2%

Question: And the viability, T/C [20]?
Answer: 47%

Question: What about the viability, T/C (second compound 10 µM, first compound 0.00316 µM) of the same compound?
Answer: 98.7%

Question: And the viability, T/C (second compound 10 µM, first compound 0.01 µM)?
Answer: 84.6%

Question: What about the viability, T/C [21] of the same compound?
Answer: 85.7%

Question: What about the viability, T/C [22] of the same compound?
Answer: 74.5%

Question: And the viability, T/C [23]?
Answer: 64.2%

Question: And the viability, T/C [24]?
Answer: 42%

Question: For `O=C(Nc1ccc(O)c(NS(=O)(=O)c2ccc(F)cc2)c1)c1ccc(-c2ccccc2)cc1` + Nc1ccc(C#CCN(C(=O)Cc2ncc(C(F)(F)F)cc2C(F)(F)F)c2ccc(F)cc2)nn1, which IC50 (second compound 0.0316 µM) is on record?
Answer: > 10000 nM

Question: What about the IC50 (second compound 0.1 µM) of the same compound?
Answer: > 10000 nM

Question: What about the IC50 (second compound 0.316 µM) of the same compound?
Answer: > 10000 nM

Question: And the IC50 (second compound 1 µM)?
Answer: > 10000 nM

Question: What about the IC50 (second compound 3.16 µM) of the same compound?
Answer: > 10000 nM

Question: What about the IC50 (second compound 10 µM) of the same compound?
Answer: > 10000 nM

Question: What about the viability, T/C [1] of the same compound?
Answer: 108%

Question: What about the viability, T/C [2] of the same compound?
Answer: 107%

Question: What about the viability, T/C [3] of the same compound?
Answer: 105%

Question: And the viability, T/C [4]?
Answer: 107%

Question: And the viability, T/C (second compound 0.0316 µM, first compound 3.16 µM)?
Answer: 109%

Question: What about the viability, T/C (second compound 0.0316 µM, first compound 10 µM) of the same compound?
Answer: 91.9%

Question: What about the viability, T/C [5] of the same compound?
Answer: 112%

Question: What about the viability, T/C [6] of the same compound?
Answer: 105%

Question: And the viability, T/C [7]?
Answer: 92.8%

Question: And the viability, T/C [8]?
Answer: 104%

Question: And the viability, T/C (second compound 0.1 µM, first compound 3.16 µM)?
Answer: 104%

Question: What about the viability, T/C (second compound 0.1 µM, first compound 10 µM) of the same compound?
Answer: 97.3%

Question: And the viability, T/C [9]?
Answer: 106%

Question: And the viability, T/C [10]?
Answer: 106%

Question: What about the viability, T/C [11] of the same compound?
Answer: 99.8%

Question: What about the viability, T/C [12] of the same compound?
Answer: 101%

Question: And the viability, T/C (second compound 0.316 µM, first compound 3.16 µM)?
Answer: 108%

Question: And the viability, T/C (second compound 0.316 µM, first compound 10 µM)?
Answer: 87.4%

Question: What about the viability, T/C [13] of the same compound?
Answer: 112%

Question: What about the viability, T/C [14] of the same compound?
Answer: 97.4%

Question: And the viability, T/C [15]?
Answer: 99.1%

Question: What about the viability, T/C [16] of the same compound?
Answer: 105%

Question: What about the viability, T/C (second compound 1 µM, first compound 3.16 µM) of the same compound?
Answer: 119%

Question: What about the viability, T/C (second compound 1 µM, first compound 10 µM) of the same compound?
Answer: 80.2%

Question: What about the viability, T/C [17] of the same compound?
Answer: 108%

Question: And the viability, T/C [18]?
Answer: 104%

Question: What about the viability, T/C [19] of the same compound?
Answer: 99.2%

Question: And the viability, T/C [20]?
Answer: 109%

Question: And the viability, T/C (second compound 3.16 µM, first compound 3.16 µM)?
Answer: 112%

Question: What about the viability, T/C (second compound 3.16 µM, first compound 10 µM) of the same compound?
Answer: 112%

Question: What about the viability, T/C [21] of the same compound?
Answer: 99%

Question: And the viability, T/C [22]?
Answer: 94%

Question: And the viability, T/C [23]?
Answer: 104%

Question: And the viability, T/C [24]?
Answer: 94.7%

Question: What about the viability, T/C (second compound 10 µM, first compound 3.16 µM) of the same compound?
Answer: 93.5%

Question: What about the viability, T/C (second compound 10 µM, first compound 10 µM) of the same compound?
Answer: 88.1%
